Laboratory results published in US6703404B2, “Tert -butyl-(7-methyl-imidazol [1,2-a]pyridin-3-yl)-amine derivatives” (Gruenenthal GmbH, priority 1999, dated 2004).
Where a name gives a salt, the structure may show the parent alone.

Tests used:
NO synthase [1] = target: T1, NO synthase (Rattus norvegicus, UniProt P29476); assay: HTS-NOS assay (labelled arginine, filter plate); format: biochemical; set-up: from tissue; host or cells: rat cerebellum (20,000 g supernatant of homogenate); details: 10 μm test substance; enzyme from rat cerebellum
Procedure: This assay enabled the percentage inhibition of NO synthase to be determined by measuring the NOS activity on the action of the active ingredient. NO synthase was mixed with radioactively labelled arginine and the active ingredient under suitable conditions. After terminating the NO-forming reaction at a predetermined time, the amount of unreacted arginine was determined directly or indirectly. Comparison of this amount with the amount of arginine remaining from a mixture of NOS and arginine without the addition of active ingredient but under conditions which were otherwise the same gave the % inhibition of NO synthase by the active ingredient tested. This assay was performed as follows:
(a) Incubation of NO synthase, with labelled arginine as a substrate, in a reaction vessel.
(b) Separation of the labelled arginine from any labelled citrulline which was formed as a product of the enzymatic reaction at a time at which the concentration of citrulline was increasing.
(c) Measuring the amount of arginine separated in each case.
Separation was effected through a filter plate membrane.
This NOS assay was particularly suitable for “High Throughput Screening” (HTS) on microtitration plates (MTPs).
In this HTS-NOS assay, radioactive arginine was used as the substrate. The assay volume can be selected within the range from […] depending on the type of microtitration plate (MTP). Cofactors and coenzymes were added depending on the enzyme source used. Batches were incubated in this microtitration plate (assay MTP) according to step (a) at room temperature, for between 5 and 60 minutes depending on the enzyme activity (units) employed. At the end of the incubation (step (a)) the plate was placed in a cell harvester which was fitted with an MTP comprising a cation exchange membrane filter base (filter MTP). All the batches from the assay MTP were transferred to this filter MTP and were filtered off under suction through a cation exchange filter plate comprising a paper filter containing phosphate groups. […] By means of this procedure, the remaining arginine substrate was bound to the cation exchanger, whilst the enzymatically formed radioactive citrulline was quantitatively removed by washing. After drying the filter MTP and adding a scintillation liquid, the bound arginine was counted in a scintillation counter. An uninhibited NOS reaction was manifested by a low level of radioactivity. An inhibited enzyme reaction meant that the radioactive arginine had not reacted, i.e. the filter contained a high level of radioactivity. […]
The contents of the assay MTP were subsequently transferred by means of a 96-well cell harvester into a 96-well cation exchanger MTP (filter MTP) and was filitered under suction. […] After a holding time of 1 hour, the plate was measured in a βcounter. […]

NO synthase [2] = target: T1, NO synthase; assay: Citrulline assay (Bredt and Snyder); format: biochemical
Procedure: This assay was performed as described by D. S. Bredt and S. H. Snyder (Proc. Natl. Acad. Sci. USA (1990), 87, 682-85).

HTS-NOS assay: %-inhibition (10 μm) (NO synthase [1])	IC50 (NO synthase [2])	Molecule	also measured
61%		Cc1ccn2c(NC(C)(C)C)c(-c3ccc(C(=O)O)s3)nc2c1 [Example 17, 5-(3-tert-butylamino-7-methyl-imidazo[1,2-a]pyridin-2-yl)-thiophen-12-carboxylic acid]	
59%		Cc1cc(C)n2c(NC(C)(C)C)c(-c3ccc([N+](=O)[O-])o3)nc2c1 [Example 9]	

Further lines, the molecule ahead of its results:

Molecule	HTS-NOS assay: %-inhibition (10 μm) (NO synthase [1])	IC50 (NO synthase [2])	also measured
Cc1cc(C)n2c(NC(C)(C)C)c(C3CCCCC3)nc2c1 [Example 5, tert-butyl-(2-cyclohexyl-5,7-dimethyl-imidazo[1,2-a]pyridin-3-yl)-amine]			inhibition at 10 µM (NO synthase [1]): 63%
Cc1ccn2c(NC(C)(C)C)c(-c3ccccc3)nc2c1 [Example 19, tert-butyl-(7-methyl-2-phenylimidazo[1,2-a]pyridin-3-yl)amine hydrochloride]		2.4 µM	
Cc1cc(C)n2c(NC(C)(C)C)c(-c3ccco3)nc2c1 [Example 18, tert-butyl-(2-furan-2-yl-5,7-dimethyl-imidazo[1,2-a]pyridin-3-yl)amine hydrochloride]		2.8 µM	
[5-(3-tert-butyl-7-methyl-imidazo[1,2-a]pyridin-2-yl)-furan-2-yl]-methanol [Example 10]	52%		
Cc1cc(C)n2c(NC(C)(C)C)c(C)nc2c1 [Example 20, tert-butyl-(2,5,7-trimethyl[1,2-a]pyridin-3-yl)amine hydrochloride]		9.2 µM	
